Laboratory results taken from ChEMBL document CHEMBL1201862, “PubChem BioAssay data set” (2004).
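1) Cells in 96-well plates. 2) Compound, 48 h, 5 concentrations. 3) Linear interpolation between surrounding doses. 4) Unreached endpoint = highest concentration. The concentration for 50% growth inhibition is given as GI50.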 The source made the active and inactive calls. Rule as the data show it: active = GI50 up to about 1.1 µM and inactive = higher.

Assays:
Test in all cases: NCI anticancer screen, dose series, 48 h
SK-MEL-5 = test system: SK-MEL-5
SNB-75 = test system: SNB-75
RXF 393 = test system: RXF 393
COLO 205 = test system: COLO 205
HCT-15 = test system: HCT-15
NCI-H226 = test system: NCI-H226
SK-MEL-2 = test system: SK-MEL-2
SNB-19 = test system: SNB-19
UO-31 = test system: UO-31
SF-268 = test system: SF-268
SF-295 = test system: SF-295
TK-10 = test system: TK-10
DLD-1 = test system: DLD-1
HCC 2998 = test system: HCC 2998
SR = test system: SR
NCI-H522 = test system: NCI-H522
MOLT-4 = test system: MOLT-4

Which GI50 (SK-MEL-5) does the source give for COc1cc2c(cc1OC)C(CC(=O)NN=C(C)C)NCC2 (configuration not stated) here?
The GI50 was > 100 µM (inactive).

What about the GI50 (SNB-75) of the same compound?
The GI50 was > 100 µM (inactive).

What about the GI50 (RXF 393) of the same compound?
The GI50 was > 100 µM (inactive).

What about the GI50 (COLO 205) of the same compound?
Its GI50 is > 100 µM (inactive).

What about the GI50 (HCT-15) of the same compound?
Its GI50 is over 100 µM.

What about the GI50 (NCI-H226) of the same compound?
The GI50 was > 100 µM (inactive).

And the GI50 (SK-MEL-2)?
Its GI50 is > 100 µM (inactive).

And the GI50 (SNB-19)?
The GI50 was > 100 µM (inactive).

What about the GI50 (UO-31) of the same compound?
Its GI50 is > 100 µM (inactive).

What about the GI50 (SF-268) of the same compound?
The GI50 was > 100 µM (inactive).

And the GI50 (SF-295)?
The GI50 was > 100 µM (inactive).

What about the GI50 (TK-10) of the same compound?
Its GI50 is > 100 µM (inactive).

And the GI50 (DLD-1)?
The GI50 was > 100 µM (inactive).

And the GI50 (HCC 2998)?
The GI50 was > 100 µM (inactive).

And the GI50 (SR)?
Its GI50 is > 100 µM (inactive).

What about the GI50 (NCI-H522) of the same compound?
The GI50 was > 100 µM (inactive).

And the GI50 (MOLT-4)?
Its GI50 is > 100 µM (inactive).

What does the source list for O=C1C2C(C(=O)N1c1ccccc1)C1(Br)c3ccccc3C2(Br)C2C(=O)N(c3ccccc3)C(=O)C21 (configuration not stated)?
GI50 (SK-MEL-5): > 31.6 µM (inactive); GI50 (SNB-75): 13 µM (inactive); GI50 (RXF 393): 11 µM (inactive); GI50 (COLO 205): > 31.6 µM (inactive); GI50 (HCT-15): 23.8 µM; GI50 (NCI-H226): > 31.6 µM (inactive); GI50 (SK-MEL-2): 31.4 µM (inactive); GI50 (SNB-19): > 31.6 µM (inactive); GI50 (UO-31): 17.5 µM (inactive); GI50 (SF-268): 27.7 µM (inactive); GI50 (SF-295): > 100 µM (inactive); GI50 (TK-10): > 31.6 µM (inactive); GI50 (DLD-1): 16.8 µM (inactive); GI50 (HCC 2998): 15 µM (inactive); GI50 (SR): > 10 µM (inactive); GI50 (NCI-H522): > 10 µM (inactive); GI50 (MOLT-4): 20.6 µM (inactive)

For CC(C)(C)C1CCC(CI)(N=[N+]=[N-])CC1 (configuration not stated), which GI50 (SK-MEL-5) is on record?
Its GI50 is > 100 µM (inactive).

And the GI50 (SNB-75)?
Its GI50 is > 100 µM (inactive).

What about the GI50 (RXF 393) of the same compound?
Its GI50 is > 100 µM (inactive).

And the GI50 (COLO 205)?
The GI50 was > 100 µM (inactive).

And the GI50 (HCT-15)?
Its GI50 is over 100 µM.

What about the GI50 (NCI-H226) of the same compound?
The GI50 was > 100 µM (inactive).

What about the GI50 (SK-MEL-2) of the same compound?
Its GI50 is 61.1 µM (inactive).

And the GI50 (SNB-19)?
Its GI50 is > 100 µM (inactive).

And the GI50 (UO-31)?
The GI50 was > 100 µM (inactive).

What about the GI50 (SF-268) of the same compound?
The GI50 was > 100 µM (inactive).

And the GI50 (SF-295)?
The GI50 was > 100 µM (inactive).

What about the GI50 (TK-10) of the same compound?
The GI50 was > 100 µM (inactive).

What about the GI50 (DLD-1) of the same compound?
The GI50 was > 100 µM (inactive).

What about the GI50 (HCC 2998) of the same compound?
Its GI50 is > 100 µM (inactive).

And the GI50 (SR)?
Its GI50 is 33.7 µM (inactive).

What about the GI50 (NCI-H522) of the same compound?
The GI50 was > 100 µM (inactive).

What about the GI50 (MOLT-4) of the same compound?
Its GI50 is > 100 µM (inactive).

Which results are given for COc1ccccc1NC(=O)CC(=O)n1nc(C)c(/N=N/c2ccccc2F)c1C?
GI50 (SK-MEL-5): > 100 µM (inactive); GI50 (SNB-75): 9.46 µM (inactive); GI50 (RXF 393): > 57.3 µM (inactive); GI50 (COLO 205): > 100 µM (inactive); GI50 (HCT-15): > 100 µM; GI50 (NCI-H226): 45.1 µM (inactive); GI50 (SK-MEL-2): > 100 µM (inactive); GI50 (SNB-19): > 76 µM (inactive); GI50 (UO-31): > 100 µM (inactive); GI50 (SF-268): 28.7 µM (inactive); GI50 (SF-295): > 52 µM (inactive); GI50 (TK-10): > 100 µM (inactive); GI50 (DLD-1): > 100 µM (inactive); GI50 (HCC 2998): > 100 µM (inactive); GI50 (SR): 71.8 µM (inactive); GI50 (NCI-H522): > 100 µM (inactive); GI50 (MOLT-4): > 31.6 µM (inactive)

Which GI50 (SK-MEL-5) does the source give for CNC(N)NC here?
Its GI50 is > 100 µM (inactive).

And the GI50 (SNB-75)?
Its GI50 is > 100 µM (inactive).

What about the GI50 (RXF 393) of the same compound?
Its GI50 is > 100 µM (inactive).

What about the GI50 (COLO 205) of the same compound?
The GI50 was > 100 µM (inactive).

And the GI50 (HCT-15)?
The GI50 was over 100 µM.

What about the GI50 (NCI-H226) of the same compound?
Its GI50 is > 100 µM (inactive).

And the GI50 (SK-MEL-2)?
The GI50 was > 100 µM (inactive).

And the GI50 (SNB-19)?
Its GI50 is > 100 µM (inactive).

And the GI50 (UO-31)?
Its GI50 is > 100 µM (inactive).

What about the GI50 (SF-268) of the same compound?
The GI50 was > 100 µM (inactive).

What about the GI50 (SF-295) of the same compound?
Its GI50 is > 100 µM (inactive).

What about the GI50 (TK-10) of the same compound?
Its GI50 is > 100 µM (inactive).

And the GI50 (DLD-1)?
Its GI50 is > 100 µM (inactive).

What about the GI50 (HCC 2998) of the same compound?
The GI50 was > 100 µM (inactive).

And the GI50 (SR)?
The GI50 was > 100 µM (inactive).

What about the GI50 (NCI-H522) of the same compound?
Its GI50 is > 100 µM (inactive).

What about the GI50 (MOLT-4) of the same compound?
The GI50 was > 100 µM (inactive).

Which GI50 (SK-MEL-5) does the source give for COc1cc2c(cc1OC)C(O)[C@H](Br)C(C)(C)O2 (some centres not stated) here?
The GI50 was > 100 µM (inactive).

And the GI50 (SNB-75)?
Its GI50 is 84.3 µM (inactive).

What about the GI50 (RXF 393) of the same compound?
The GI50 was > 100 µM (inactive).

And the GI50 (COLO 205)?
Its GI50 is > 100 µM (inactive).

What about the GI50 (HCT-15) of the same compound?
Its GI50 is over 100 µM.

And the GI50 (NCI-H226)?
Its GI50 is > 100 µM (inactive).

What about the GI50 (SK-MEL-2) of the same compound?
Its GI50 is > 100 µM (inactive).

What about the GI50 (SNB-19) of the same compound?
Its GI50 is > 100 µM (inactive).

What about the GI50 (UO-31) of the same compound?
Its GI50 is > 100 µM (inactive).

What about the GI50 (SF-268) of the same compound?
The GI50 was > 100 µM (inactive).

And the GI50 (SF-295)?
The GI50 was > 100 µM (inactive).

What about the GI50 (TK-10) of the same compound?
Its GI50 is > 100 µM (inactive).

What about the GI50 (DLD-1) of the same compound?
Its GI50 is > 100 µM (inactive).

And the GI50 (HCC 2998)?
Its GI50 is > 100 µM (inactive).

What about the GI50 (SR) of the same compound?
The GI50 was > 100 µM (inactive).

And the GI50 (NCI-H522)?
Its GI50 is > 100 µM (inactive).

And the GI50 (MOLT-4)?
The GI50 was > 100 µM (inactive).
